From US11739098B2 (BRISTOL-MYERS SQUIBB COMPANY, priority 2017, dated 2023)

Experiments:
Format in all cases: cell-based
human TLR8 = target: T1, human TLR8 (Homo sapiens, UniProt Q9NR97); test: TLR8 inhibition reporter assay (HEK-Blue cells, SEAP reporter, R848 stimulation); settings: HEK-Blue cells overexpressing human TLR8, SEAP reporter, R848 15.9 μM
T1 construct: host or cells: HEK-Blue cells (HEK293-derived reporter line)
T1 sequence (Q9NR97 27-1041): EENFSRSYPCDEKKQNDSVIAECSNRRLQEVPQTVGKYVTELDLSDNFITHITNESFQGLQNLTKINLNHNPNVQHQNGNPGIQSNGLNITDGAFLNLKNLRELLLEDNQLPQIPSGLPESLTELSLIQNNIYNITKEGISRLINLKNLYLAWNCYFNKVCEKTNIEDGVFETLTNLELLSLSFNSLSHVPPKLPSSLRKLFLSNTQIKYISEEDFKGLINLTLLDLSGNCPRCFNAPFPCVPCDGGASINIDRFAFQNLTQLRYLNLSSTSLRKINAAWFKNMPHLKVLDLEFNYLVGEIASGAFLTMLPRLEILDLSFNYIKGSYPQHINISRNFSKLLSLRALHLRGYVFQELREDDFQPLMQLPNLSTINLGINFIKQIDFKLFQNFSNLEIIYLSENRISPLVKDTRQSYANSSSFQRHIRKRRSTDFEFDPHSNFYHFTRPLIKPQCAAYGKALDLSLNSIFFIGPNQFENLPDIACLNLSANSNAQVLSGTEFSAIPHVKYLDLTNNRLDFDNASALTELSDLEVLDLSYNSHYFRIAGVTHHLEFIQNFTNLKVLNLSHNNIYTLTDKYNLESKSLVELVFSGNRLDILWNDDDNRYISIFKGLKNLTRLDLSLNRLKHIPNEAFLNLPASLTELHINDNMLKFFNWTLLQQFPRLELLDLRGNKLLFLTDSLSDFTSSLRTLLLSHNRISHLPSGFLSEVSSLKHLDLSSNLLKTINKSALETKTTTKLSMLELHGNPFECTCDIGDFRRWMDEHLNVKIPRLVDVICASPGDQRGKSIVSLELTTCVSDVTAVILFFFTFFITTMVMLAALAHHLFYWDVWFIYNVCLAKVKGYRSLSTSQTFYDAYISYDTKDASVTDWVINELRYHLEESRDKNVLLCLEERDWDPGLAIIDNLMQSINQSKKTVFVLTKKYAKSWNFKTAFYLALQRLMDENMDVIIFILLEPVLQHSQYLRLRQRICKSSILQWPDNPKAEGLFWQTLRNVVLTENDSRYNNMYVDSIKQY
How it was run: (§1)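 Percent inhibition of agonist-induced SEAP secretion in HEK-Blue cells after 22 h at 37 °C. Stimuli: 7.5 μM gardiquimod, 15.9 μM R848, 5 nM ODN2006 for TLR7, TLR8 and TLR9, added after 30 min compound exposure over a 0.05 nM–50 μM range.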

human TLR7 = target: T2, human TLR7 (Homo sapiens, UniProt Q9NYK1); test: TLR7 inhibition reporter assay (HEK-Blue cells, SEAP reporter, gardiquimod stimulation); settings: HEK-Blue cells overexpressing human TLR7, SEAP reporter, gardiquimod 7.5 μM
T2 construct: host or cells: HEK-Blue cells (HEK293-derived reporter line)
T2 sequence (Q9NYK1 27-1049): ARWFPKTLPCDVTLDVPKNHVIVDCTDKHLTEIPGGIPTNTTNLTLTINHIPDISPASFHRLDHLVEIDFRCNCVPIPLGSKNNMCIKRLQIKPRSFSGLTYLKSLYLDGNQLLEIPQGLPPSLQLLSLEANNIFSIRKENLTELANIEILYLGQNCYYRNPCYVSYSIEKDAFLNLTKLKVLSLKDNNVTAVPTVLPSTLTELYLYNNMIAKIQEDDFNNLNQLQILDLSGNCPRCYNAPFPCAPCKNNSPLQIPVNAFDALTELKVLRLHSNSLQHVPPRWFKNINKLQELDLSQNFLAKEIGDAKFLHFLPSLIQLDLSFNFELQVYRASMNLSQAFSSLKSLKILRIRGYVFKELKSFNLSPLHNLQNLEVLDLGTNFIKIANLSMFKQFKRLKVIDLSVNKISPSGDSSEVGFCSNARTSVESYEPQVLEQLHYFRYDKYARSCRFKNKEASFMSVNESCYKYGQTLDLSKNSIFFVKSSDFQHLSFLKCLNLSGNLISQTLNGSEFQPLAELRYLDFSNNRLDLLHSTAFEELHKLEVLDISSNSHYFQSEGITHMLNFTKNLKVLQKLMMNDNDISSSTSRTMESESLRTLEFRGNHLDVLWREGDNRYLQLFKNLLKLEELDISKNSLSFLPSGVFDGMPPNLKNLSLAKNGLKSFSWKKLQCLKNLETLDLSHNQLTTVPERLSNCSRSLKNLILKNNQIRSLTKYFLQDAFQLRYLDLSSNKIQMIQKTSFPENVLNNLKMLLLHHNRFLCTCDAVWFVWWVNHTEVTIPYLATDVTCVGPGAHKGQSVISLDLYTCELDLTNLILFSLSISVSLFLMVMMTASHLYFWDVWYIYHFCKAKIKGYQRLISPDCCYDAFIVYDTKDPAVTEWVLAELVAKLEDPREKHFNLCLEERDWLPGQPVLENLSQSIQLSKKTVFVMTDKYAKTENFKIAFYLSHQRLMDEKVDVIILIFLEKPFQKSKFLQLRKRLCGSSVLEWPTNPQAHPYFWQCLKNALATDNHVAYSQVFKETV
How it was run: as §1

human TLR9 = target: T3, human TLR9 (Homo sapiens, UniProt Q9NR96); test: TLR9 inhibition reporter assay (HEK-Blue cells, SEAP reporter, ODN2006 stimulation); settings: HEK-Blue cells overexpressing human TLR9, SEAP reporter, ODN2006 5 nM
T3 construct: host or cells: HEK-Blue cells (HEK293-derived reporter line)
T3 sequence (Q9NR96 26-1032): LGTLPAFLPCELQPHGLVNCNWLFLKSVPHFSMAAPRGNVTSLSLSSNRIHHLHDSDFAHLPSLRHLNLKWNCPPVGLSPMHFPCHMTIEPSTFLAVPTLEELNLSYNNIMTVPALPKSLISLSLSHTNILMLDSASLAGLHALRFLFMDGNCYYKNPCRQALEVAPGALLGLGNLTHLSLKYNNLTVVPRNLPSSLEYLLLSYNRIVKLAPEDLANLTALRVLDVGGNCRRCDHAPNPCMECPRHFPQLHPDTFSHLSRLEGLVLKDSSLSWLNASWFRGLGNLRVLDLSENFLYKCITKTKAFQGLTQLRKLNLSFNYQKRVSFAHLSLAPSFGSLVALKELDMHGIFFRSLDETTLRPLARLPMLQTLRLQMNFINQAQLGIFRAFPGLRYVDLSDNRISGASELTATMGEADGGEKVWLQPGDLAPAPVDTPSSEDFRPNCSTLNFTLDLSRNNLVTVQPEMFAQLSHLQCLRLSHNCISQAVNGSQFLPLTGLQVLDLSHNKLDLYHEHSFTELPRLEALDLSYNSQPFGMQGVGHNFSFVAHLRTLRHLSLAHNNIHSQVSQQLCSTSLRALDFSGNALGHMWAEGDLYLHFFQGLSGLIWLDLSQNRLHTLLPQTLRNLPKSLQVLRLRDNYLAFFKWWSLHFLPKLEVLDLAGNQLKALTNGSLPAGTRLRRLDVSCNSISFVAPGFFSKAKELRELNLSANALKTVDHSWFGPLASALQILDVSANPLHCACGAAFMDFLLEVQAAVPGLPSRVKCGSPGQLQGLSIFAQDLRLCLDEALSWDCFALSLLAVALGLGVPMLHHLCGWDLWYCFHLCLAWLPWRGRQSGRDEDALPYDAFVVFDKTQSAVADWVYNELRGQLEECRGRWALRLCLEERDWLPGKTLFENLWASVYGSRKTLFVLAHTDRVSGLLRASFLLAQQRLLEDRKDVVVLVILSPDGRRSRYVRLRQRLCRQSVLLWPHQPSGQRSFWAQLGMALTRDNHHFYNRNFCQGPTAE
How it was run: as §1

Row | Compound | IC50 (human TLR8) [nM] | IC50 (human TLR7) [nM] | IC50 (human TLR9) [nM]
1 | CC(C)c1c(-c2ccn3nccc3c2)[nH]c2ccc(C3CCN(C(=O)CN(C)C)CC3)cc12 [Example 542, 2-(dimethylamino)-1-(4-(3-isopropyl-2-(pyrazolo[1,5-a]pyridin-5-yl)-1H-indol-5-yl)piperidin-1-yl)ethan-1-one] | 100 to 1000 | < 100 | 1000 to 50000
2 | Cc1cc(-c2[nH]c3ccc(C4CCN(CC(=O)N(C)C)CC4)cc3c2C(C)C)cc2[nH]cnc12 [Example 287, 2-(4-(3-isopropyl-2-(4-methyl-1H-benzo[d]imidazol-6-yl)-1H-indol-5-yl)piperidin-1-yl)-N,N-dimethylacetamide] | 100 to 1000 | 1000 to 50000 | 1000 to 50000
3 | CC(C)c1c(-c2ccnc3[nH]ncc23)[nH]c2ccc(C3CCN(CCCN4CCCCC4)CC3)cc12 [Example 848, 4-(3-isopropyl-5-(1-(3-(piperidin-1-yl)propyl)piperidin-4-yl)-1H-indol-2-yl)-1H-pyrazolo[3,4-b]pyridine] | 100 to 1000 | 100 to 1000 | 100 to 1000
4 | Cc1cn2cc(-c3[nH]c4ccc(C5CCNCC5)cc4c3C(C)C)cc(C)c2n1 [Example 120, 6-(3-isopropyl-5-(piperidin-4-yl)-1H-indol-2-yl)-2,8-dimethylimidazo[1,2-a]pyridine] | < 100 | < 100 | 100 to 1000
5 | CCc1c(-c2ccnc3[nH]ncc23)[nH]c2ccc(C3CCN(Cc4cnn(C)c4)CC3)cc12 [Example 901, 4-(3-ethyl-5-(1-((1-methyl-1H-pyrazol-4-yl)methyl)piperidin-4-yl)-1H-indol-2-yl)-1H-pyrazolo[3,4-b]pyridine] | < 100 | 100 to 1000 | 1000 to 50000
6 | CCc1c(-c2ccnc3[nH]ncc23)[nH]c2ccc(C3CCN(C(=O)C4CCN(C)CC4)CC3)cc12 [Example 648, (4-(3-ethyl-2-(1H-pyrazolo[3,4-b]pyridin-4-yl)-1H-indol-5-yl)piperidin-1-yl)(1-methylpiperidin-4-yl)methanone] | < 100 | < 100 | 1000 to 50000

Further lines, results first:

Row | IC50 (human TLR8) [nM] | IC50 (human TLR7) [nM] | IC50 (human TLR9) [nM] | Compound
7 | 100 to 1000 | < 100 | 100 to 1000 | CC(C)c1c(-c2ccnc3[nH]ncc23)[nH]c2cc(C(F)(F)F)c(C3CCN(CC4CCN(C(C)C)C4)CC3)cc12 (stereo not drawn) [Example 854, 4-(3-isopropyl-5-(1-((1-isopropylpyrrolidin-3-yl)methyl)piperidin-4-yl)-6-(trifluoromethyl)-1H-indol-2-yl)-1H-pyrazolo[3,4-b]pyridine]
8 | 1000 to 50000 | < 100 | 1000 to 50000 | CNC(=O)CN1CCC(c2ccc3[nH]c(-c4ccn5nc(C)nc5c4)c(C(C)C)c3c2)CC1 [Example 331, 2-(4-(3-isopropyl-2-(2-methyl-[1,2,4]triazolo[1,5-a]pyridin-7-yl)-1H-indol-5-yl)piperidin-1-yl)-N-methylacetamide]
9 | 1000 to 50000 | < 100 | 1000 to 50000 | Cc1cc(-c2[nH]c3ccc(C4CCNCC4)cc3c2C(C)C)cn2c(C)cnc12 [Example 121, 6-(3-isopropyl-5-(piperidin-4-yl)-1H-indol-2-yl)-3,8-dimethylimidazo[1,2-a]pyridine]
10 | < 100 | < 100 | 100 to 1000 | CNCCN1CCC(c2ccc3[nH]c(-c4ccc5nccn5c4)c(C(C)C)c3c2)CC1 [Example 680, 2-(4-(2-(imidazo[1,2-a]pyridin-6-yl)-3-isopropyl-1H-indol-5-yl)piperidin-1-yl)-N-methylethan-1-amine]
11 | 100 to 1000 | < 100 | 1000 to 50000 | Cc1nc2ccc(-c3[nH]c4ccc(C5CCNCC5)cc4c3C(C)C)cc2o1 [Example 6, 6-(3-isopropyl-5-(piperidin-4-yl)-1H-indol-2-yl)-2-methylbenzo[d]oxazole]
12 | 100 to 1000 | < 100 | 100 to 1000 | Cc1cn2cc(-c3[nH]c4ccc(C5CCN(C(C)C)CC5)cc4c3C(C)C)cc(C(F)(F)F)c2n1 [Example 943, 6-(3-isopropyl-5-(1-isopropylpiperidin-4-yl)-1H-indol-2-yl)-2-methyl-8-(trifluoromethyl)imidazo[1,2-a]pyridine]
13 | < 100 | < 100 | 100 to 1000 | CC(C)c1c(-c2ccnc3[nH]ncc23)[nH]c2ccc(C3CCN(C(=O)CN4CCN(c5ccncc5)CC4)CC3)cc12 [Example 591, 1-(4-(3-isopropyl-2-(1H-pyrazolo[3,4-b]pyridin-4-yl)-1H-indol-5-yl)piperidin-1-yl)-2-(4-(pyridin-4-yl)piperazin-1-yl)ethan-1-one]
14 | 100 to 1000 | < 100 | 1000 to 50000 | CC(C)c1c(-c2cnc3ncnn3c2)[nH]c2ccc(C3CCN(C(=O)CN(C)C)CC3)cc12 [Example 554, 1-(4-(2-([1,2,4]triazolo[1,5-a]pyrimidin-6-yl)-3-isopropyl-1H-indol-5-yl)piperidin-1-yl)-2-(dimethylamino)ethan-1-one]
